The record followed here is ChEMBL document CHEMBL4265923, “In vitro and in vivo characterization of a novel, highly potent p53-MDM2 inhibitor” (Bioorg Med Chem Lett, 2018).

For data set [1], the system named is SJSA-1. Kind of data set: Antiproliferative activity against human SJSA1 cells after 72 hrs by YO-PRO-1 iodide staining-based assay. Format: functional. The note with it: SJSA-1, 72 h.
The nature of data set [2]: Half life in rat liver microsomes. Type of data set: ADME, microsome. (Microsomes from liver hold many membrane-bound enzymes, among them those of drug oxidation.)
The nature of data set [3]: Intrinsic clearance in rat liver microsomes. Type of data set: ADME, microsome.
The nature of data set [4]: Volume of distribution at steady state in Sprague-Dawley rat at 1 mg/kg, iv. Type of data set: ADME, organism-based. The note with it: in vivo, read-out: Vdss.
Data set [5] is described as follows: Half life in monkey liver microsomes. Type of data set: ADME, Macaca mulatta, microsome. The note with it: rhesus monkey.
Data set [6] in a line: Half life in dog liver microsomes. Type of data set: ADME, Canis lupus familiaris, microsome.
Data set [7] in a line: Tmax in nude rat xenografted with human SJSA1 cells at 1 to 5 mg/kg, po qd. Format: ADME, organism-based. The settings on record: in vivo.
Data set [8] is described as follows: Intrinsic clearance in human liver microsomes. Format: ADME, microsome.
Data set [9] has as its system SJSA-1. Kind of data set: Antitumor activity against human SJSA1 cells xenografted in nude rat assessed as tumor regression at 5 mg/kg, po qd for 14 days. Type of data set: functional.
Data set [10] is described as follows: Intrinsic clearance in monkey liver microsomes. Format: ADME, Macaca mulatta, microsome. The note with it: rhesus monkey.
For data set [11], the system named is SJSA-1. In words: Antitumor activity against human SJSA1 cells xenografted in nude rat assessed as reduction in tumor volume at 1 mg/kg, po qd for 14 days. Format: functional. Also noted: scale not given: the % may be the effect or the level left.
Data set [12] concerns Rattus norvegicus. In words: Toxicity in nude rat xenografted with human SJSA1 cells assessed as increase in body weight at 1 to 5 mg/kg, po qd for 14 days. Type of data set: organism-based. The note with it: in vivo, 336 h. For orientation: Xenograft models place foreign cells or tissue in a host animal.
Data set [13] in a line: Fraction absorbed of compound by PAMPA. Format: ADME. Background: The PAMPA barrier holds no transporters, so it reflects passive diffusion.
The test system of data set [14] is Rattus norvegicus. In words: Dose normalized Cmax in Sprague-Dawley rat at 3 mg/kg, po. Type of data set: ADME, organism-based. The settings on record: in vivo.
Data set [15] concerns Rattus norvegicus. Kind of data set: Upregulation of PUMA mRNA expression level in po dosed nude rat tumor xenografted with human SJSA1 cells by RT-PCR method.
Data set [16] concerns SJSA-1. Kind of data set: Antitumor activity against human SJSA1 cells xenografted in nude rat assessed as tumor regression at 3 mg/kg, po qd for 14 days. Type of data set: functional.
The test system of data set [17] is Rattus norvegicus. Kind of data set: Upregulation of MDM2 mRNA expression level in po dosed nude rat tumor xenografted with human SJSA1 cells by RT-PCR method.
In data set [18] the test system is Rattus norvegicus. Kind of data set: Dose normalized AUC in Sprague-Dawley rat at 3 mg/kg, po. Type of data set: ADME, organism-based. The settings on record: in vivo.
The nature of data set [19]: Clearance in Sprague-Dawley rat at 1 mg/kg, iv. Format: ADME, organism-based. The settings on record: in vivo.
Data set [20] in a line: Intrinsic clearance in dog liver microsomes. Type of data set: ADME, Canis lupus familiaris, microsome.
Data set [21] has as its system Rattus norvegicus. In words: Dose normalized AUC in Sprague-Dawley rat at 1 mg/kg, iv. Type of data set: ADME, organism-based. The note with it: in vivo.
Data set [22] concerns Rattus norvegicus. In words: Upregulation of p21 mRNA expression level in po dosed nude rat tumor xenografted with human SJSA1 cells by RT-PCR method.
The nature of data set [23]: Tmax in Sprague-Dawley rat at 3 mg/kg, po. Format: ADME, organism-based. The settings on record: in vivo.
A short description of data set [24]: Half life in Sprague-Dawley rat at 1 mg/kg, iv. Type of data set: ADME, organism-based. The settings on record: in vivo.
Data set [25] in a line: Half life in mouse liver microsomes. Format: ADME, microsome.
Data set [26] has as its system SJSA-1. In words: Antitumor activity against human SJSA1 cells xenografted in po dosed nude rat assessed as tumor growth inhibition administered once daily for 14 days. Type of data set: functional, organism-based.
Data set [27] in a line: Half life in human liver microsomes. Type of data set: ADME, microsome.
The nature of data set [28]: Oral bioavailability in Sprague-Dawley rat at 3 mg/kg. Type of data set: ADME, organism-based. The note with it: in vivo.
The nature of data set [29]: Intrinsic clearance in mouse liver microsomes. Format: ADME, microsome.

What is called GI50 is the concentration that inhibits growth by half. The term half-life denotes how long it takes for the measured level to halve. As to `COc1ncc(-c2nc3c(n2C(C)C)C(c2ccc(Cl)cc2C)N(c2cc(Cl)ccc2C)C3=O)c(OC)n1` (racemic), in the data set with SJSA-1 [1], growth was halved (GI50) at 0.026 µM. In addition, in data set [2], the half-life is 30 min. In data set [3], this compound yielded a CLint of 47 µL/min/mg.
`COc1cccc(F)c1-c1nc2c(n1C(C)C)C(c1ccc(Cl)cc1C)N(c1cc(Cl)ccc1C)C2=O` (racemic) returned a 50% growth inhibitory concentration (GI50) with SJSA-1 [1] of 0.276 µM. In data set [2], this compound returned a half-life of 3.3 min. The CLint in [3] worked out at 450 µL/min/mg.
By Tmax is commonly meant the time from dosing to the highest level. What is called clearance is a measure of how efficiently the substance is removed, as volume per time. In general, bioavailability refers to the share of a dose that reaches the circulation, judged against a reference dose that is usually intravenous. `COc1ncc(-c2nc3c(n2C(C)C)[C@H](c2ccc(Cl)cc2C)N(c2cc(Cl)ccc2C)C3=O)c(OC)n1`: in the data set with SJSA-1 [1], growth was halved (GI50) at 0.011 µM. Moreover, in data set [4], the Vd was 4.4 L/kg. For the same compound, the half-life was 81 min in data set [5]; 40 min in data set [6]; 39 min in [2]; 108 min in data set [24]; 39 min in data set [25]; 17 min in data set [27]. Also, the Tmax was determined as 180 min in data set [7] and 120 min in [23]. The CLH in [8] was determined as 72 µL/min/mg; in data set [10], 20 µL/min/mg; in [20] it was 35 µL/min/mg; in data set [29], 36 µL/min/mg. Moreover, the Activity in the data set on SJSA-1 [9] was 98%; with SJSA-1 [11] it was 40%; in the data set on Rattus norvegicus [12], “Non-Toxic”; in the data set on Rattus norvegicus [15], “Dose-dependent effect”; in the data set with SJSA-1 [16], 32%; in the data set on Rattus norvegicus [17], “Dose-dependent effect”. Also, in the data set on Rattus norvegicus [22], the Activity entry is “Dose-dependent effect”. In data set [13], this compound returned a Fa of 99%. Also, the Cmax/dose in the data set with Rattus norvegicus [14] is 75 nM/(mg/kg). In data set [3], this compound had a CLint of 35 µL/min/mg. The AUC/dose came out at 719 nM·h in the data set on Rattus norvegicus [18] and 1080 nM·h in the data set on Rattus norvegicus [21]. The same compound displayed a clearance in [19] of 32 mL/min/kg. Besides, the TGI result in the data set with SJSA-1 [26] was “Dose-dependent effect”. In addition, in data set [28], the bioavailability was found to be 67%.
In turn, `COc1ccccc1-c1cc2c(n1C(C)C)C(c1ccc(Cl)cc1C)N(c1cc(Cl)ccc1C)C2=O` (configuration not stated) showed a GI50 with SJSA-1 [1] of 0.216 µM.
The compound `COc1ccc(F)cc1-c1nc2c(n1C(C)C)C(c1ccc(Cl)cc1C)N(c1cc(Cl)ccc1C)C2=O` (racemic) gave a 50% growth inhibitory concentration (GI50) in the data set with SJSA-1 [1] of 0.228 µM. In [2], this compound came in with a half-life of 3.3 min. This compound came in with a CLint in data set [3] of 460 µL/min/mg.
In the case of `COc1ccccc1-n1nc2c(c1C(C)C)[C@H](c1ccc(Cl)cc1C)N(c1cc(Cl)ccc1C)C2=O`, the CLH is 115 µL/min/mg in [8] and 495 µL/min/mg in [29]. Besides, the CLint in data set [3] worked out at 385 µL/min/mg.
As to `COc1ncc(-c2nc3c(n2C(C)C)[C@@H](c2ccc(Cl)cc2C)N(c2cc(Cl)ccc2C)C3=O)c(OC)n1`, in the data set on SJSA-1 [1], growth was halved (GI50) at 1 µM. In addition, in data set [2], the half-life stood at 56 min. Also, the CLint in data set [3] was 25 µL/min/mg.
Turning to `COc1ncncc1-c1nc2c(n1C(C)C)C(c1ccc(Cl)cc1C)N(c1cc(Cl)ccc1C)C2=O` (racemic), the GI50 in the data set with SJSA-1 [1] was found to be 0.111 µM. Further, in data set [2], the half-life amounted to 8 min. In addition, the CLint in data set [3] stood at 178 µL/min/mg.
Regarding `COc1ccccc1-c1nc2c(n1C(C)C)[C@H](c1ccc(Cl)cc1C)N(c1cc(Cl)ccc1C)C2=O`, in the data set on SJSA-1 [1], the GI50 was 0.062 to 0.064 µM. Further, the half-life in data set [2] was 3.6 min. This compound also registered a CLint in [3] of 385 µL/min/mg.
For `COc1ccc(-c2nc3c(n2C(C)C)C(c2ccc(Cl)cc2C)N(c2cc(Cl)ccc2C)C3=O)c(OC)n1` (racemic), in that order: 0.186 µM, 20 min and 69 µL/min/mg.
The corresponding values for `COc1ccncc1-c1nc2c(n1C(C)C)[C@H](c1ccc(Cl)cc1C)N(c1cc(Cl)ccc1C)C2=O` are 0.345 µM, 12 min and 117 µL/min/mg.
